The text below walks through data of patent US12031150B2, “Methods, compositions and kits for increasing genome editing efficiency” (Vertex Pharmaceuticals Incorporated, priority 2016, dated 2024).

Assay [1] has as its system HDR repair pathway in the HEK293-EGIP cell line. In words: Traffic light reporter (TLR) assay, HDR efficiency by FACS (GFP positive cells). It is filed as cell-based, human. The following applies: for FACS Analysis - Percent HDR enhancement (gRNA-Cas9 + donor), Mean / FACS Analysis - Percent HDR enhancement (gRNA-Cas9 + donor), single replicate: 2.5 uM compound, HEK293-EGIP; for FACS Analysis - Percent HDR enhancement (gRNA-Cas9 + donor), Mean: mean of three technical replicates; for FACS Analysis - Percent HDR enhancement (gRNA-Cas9 + donor), single replicate: technical replicates 1-3 of one experiment; for fold increase in the amount of CRISPR-genome edited cells (HDR enhancement): compared to transfection in the absence of compound, Table 1, FIG. 2C; for GFP positive cells after transfection of donor repair template and gRNA-Cas9 (qualitative): FIG. 2A FACS dot plots. The text has this: Traffic light reporter (TLR) assay: The HEK293-EGIP (Enhanced Green Fluorescent inhibited Protein) stable cell line was purchased from System Biosciences (SBI). The HEK293-EGIP cell line harbors a disrupted GPP coding sequence with a stop codon and a 53-bp genomic fragment from the AAVS1 locus. Cells were maintained in DMEM (Life Technologies, cat. no. 10313-039) with high glucose (Life Technologies, cat. no. 10313-039) supplemented with 10% heat-inactivated FBS (Fetal Bovine Serum, Expression Systems Inc.), Glutamax and Penicillin+Streptomycin and cultured at 37° C. and 5% CO2.
Cell transfection and NHEJ inhibitor treatment: The HEK293-EGIP stable cells were transfected with the two-in-one gRNA/CRISPR-Cas9 dual plasmid vector, plasmid repair donor (both plasmids from System Biosciences). Transfection was carried out using the Amaxa nucleofector system (Lonza) following manufacturer's protocol. After 16 hours, cells were treated with Compound 1 and Scr7 (Excess Bioscience; no. M60082-2s) at various concentrations, including 1 μM, 2.5 μM, 5 μM and 10 μM of compound. The structure of Scr7 is shown as follows:
Cell Sorting and Flow Cytometry: For flow cytometry analysis, HEK293 cells were trypsinized and resuspended in PBS/1% BSA FACS buffer and analyzed with a Fortessa flow cytometer (Becton Dickinson). A portion of cells were centrifuged and used for the isolation of genomic DNA.
Assays were performed to ascertain HDR efficiency in HEK293-EGIP cells. To this end, a bicistronic construct was used that targets the human AAVS1 locus (FIG. 1A). The bicistronic vector system co-expresses human codon optimized Cas9 driven by the EF1 promoter as well as custom guide RNA (gRNA) consisting of a chimeric crRNA-tracrRNA transcript driven by the Hl promoter. The hspCas9 contains two nuclear localization signals (NLS) at the N-terminus and C-terminus to ensure efficient import of the hspCas9 protein into the nucleus. The hspCas9 open reading frame (ORF) is followed by a regulatory element called WPRE (Woodchuck virus post-transcriptional regulatory element) to boost gene expression and stabilize the mRNA transcript.
The engineered human cell line, EGIP HEK293 was used to monitor HDR efficiency using the bicistronic construct described above and in FIG. 1A. The EGIP HEK293 reporter cell line was purchased from SBI. The HEK293-EGIP cell line harbors a disrupted GFP coding sequence with a stop codon and a 53-bp genomic fragment from the AAVS1 locus. The stable line was generated by lentiviral infection of 293T cells with an EF1alpha promoter to drive the expression of eGFP followed by puromycin selection. The eGFP sequence was modified to insert a 56 nucleotide insert (uppercase) from the human AAVS1 safe harbor site. This sequence contains a stop codon (TAA in red) after amino acid T109 in the eGFP translated sequence. The guide sequences targeted are in bold letters. Upon transfection with the guide and donor, the AAVS1 site within the broken eGFP was cut and the donor construct provided a homologous sequence to repair the eGFP, by removing the stop codon and the AAVS1 insert. Edited cells which had undergone HDR donor repair will generate GFP positive cells. Accordingly, co-transfecting Cas9, gRNA targeting AAVS1 and a AAVS1/EGFP rescue donor restored the sequence by HDR to give GFP+ cells.
The population of GFP positive cells was directly proportional with the efficiency of the homology directed repair (FIG. 1B).
For these assays, two-in-one Cas9-sgRNAs and eGFP donor template vectors were introduced into the HEK293 EGIP cells by electroporation using the Amaxa nucleofector (Lonza) to drive the synthesis of Cas9-sgRNAs and the eGFP donor template. Compounds were added 16 h post transfection followed by media change 48 hours later. Cells were then allowed to propagate for an additional 72 hours before FACS analysis. […]
For orientation: A flow cytometer gives signals particle by particle.

For assay [2], the system named is Serpin A1 gene in Huh7 hepato cellular carcinoma cells. In words: SerpinA1 gene editing assay (KpnI site introduction, PCR and Kpn digest). In kind it is cell-based. The following applies: Huh7 cells nucleofected with gRNA, Cas9 protein, donor repair template; 2.5 pM Compound 1 for three days; vs DMSO; FIG. 5. The method, then: Assays were performed to ascertain the ability of a DNAPK inhibitor to allow for the editing of a target gene. For these assays, the editing of the Serpin A1 gene from M to Z form was assessed. To this end, Huh7 hepato cellular carcinoma cells were nucleofected with gRNA and Cas9 protein, with or without a donor repair template in which a KpnI site was introduced. The nucleofected cells were then cultured in the presence of DMSO or 2.5 pM Compound 1 for three days, following which, the genomic DNA was amplified and assessed for the introduction of the Kpn site.
The assay works as follows: when the SerpinA1 gene is edited, Kpn endonuclease is able to digest the gene fragment, resulting in the appearance of a digested band on a gel only when the SerpinA1 gene is edited. Conversely, when the SerpinA1 is not edited, the Kpn endonuclease is not able cut the gene fragment, and thus there will not be an appearance of a new, digested band on a gel.

The subject of assay [3] is HDR efficiency in HEK-293 EGIP cells. In words: PCR genotyping and gel densitometry quantification of HDR efficiency. It is filed as cell-based, human. Particulars: HEK293-EGIP cells nucleofected with donor template and Cas9-sgRNA; for HDR Editing Efficiency, replicate 1 hdr 1 / HDR Editing Efficiency, replicate 2 hdr 2 / HDR Editing Efficiency, replicate 3 hdr 3 / HDR Editing Efficiency, replicate 4 hdr 4: PCR band densitometry; for HDR Editing Efficiency, Average: average of replicates 1-4. The text has this: Genomic DNA isolation, PCR Genotyping, and Gel Quantification: Specially designed PCR primer pairs provided another means to assess HDR-mediated genome editing to obtain functional eGFP positive cells. The genotyping PCR primer pair is shown below, corresponding to SEQ ID NOs: 6 and 7. A 219 bp PCR product corresponds to unmodified cells and a 163 bp nucleotide corresponds to modification through HDR. Intensity of these bands on a >2.5% gel allows for estimation of HDR by densitometry using a Bio-Imager. The technique allows for the relative ranking of improvement of HDR by inhibitors. Intensities measured for each lane were normalized by calculating the ratios of PCR bands corresponding to ‘insertions’ divided by ‘total’ (inserted and unmodified). The fold-change was calculated by comparing the ratio of insertions with compound over that without compound.
Another series of experiments compared increase in HDR efficiency following contact with either Scr7 or Compound 1, a DNAPK inhibitor. For these experiments, HEK293-EGIP cells were nucleofected with donor template only or donor template and Cas9-sgRNA. To test the ability of Scr7 and Compound 1 to enhance HDR editing, cells that had been nucleofected with either donor template alone, or donor template and Cas9-sgRNA were administered either Scr7 or Compound 1.
HDR recombination status was ascertained by traditional “end-point” PCR primer genotyping and quantitation based on agarose band intensities. The primers produced distinct amplicons: a 219 bp nucleotide band corresponded to unmodified cells and a 163 bp nucleotide product for HDR event. Intensity of these bands on a >2.5% gel allows for estimation of HDR by densitometry using a Bio-Imager. The technique allows for the relative ranking of conditions for improvement of HDR by inhibitors of NHEJ. The genotyping PCR primer pairs for these assays is shown below.

For assay [4], the system named is HDR repair pathway in the HEK293-EGIP cell line. Briefly: Traffic light reporter (TLR) assay, HDR efficiency by FACS (GFP positive cells). Particulars: for increase in the amount of CRISPR-genome edited HEK-EGIP cells: 2.5 μM, 24 hours, in comparison to the gRNA-Cas9 and donor template condition only, FIG. 2A; for GFP positive cells: flow cytometry 10 days post transfection, 10 μM, FIG. 4. In kind it is cell-based, human.

“And” between values parts separate entries of the source, which are not always exact repeats. Equal entries are not always repeated. “Also recorded” adds a separate entry of the source.

Take `CNC(=O)c1ccnc2c([C@H](C)CNc3cc(-c4cnc(C)nc4)ncn3)cccc12` [Compound 1, (5)-N-methyl-8-(1-((2′-methyl-[4,5′-bipyrimidin]-6-yl)amino)propan-2-yl)quinoline-4-carboxamide]: in assay [1], the “FACS Analysis - Percent HDR enhancement (gRNA-Cas9 + donor), Mean” value stood at 0.64%; the “FACS Analysis - Percent HDR enhancement (gRNA-Cas9 + donor), single replicate” value is 0.44% and 6.82% and 0.65%; the “GFP positive cells after transfection of donor repair template and gRNA-Cas9 (qualitative)” value was “increase in GFP positive cells”. The “fold increase in the amount of CRISPR-genome edited cells (HDR enhancement)” value in assay [1] (2.5 μM) is on record as roughly 4.5 fold. In assay [1] (2.5 μM, two separate experiments in triplicates, FIGS. 2B and 2C), the “fold better HDR enhancement compared to transfection with Scr7” value is reported as 2 fold. For the same compound, the “gene editing of the SerpinA1 gene (introduction of Kpn site, digested band on gel)” value in assay [2] was “allowed for gene editing in comparison to the DMSO condition; also recorded: resulted in gene editing of the SerpinA1 gene”. In assay [3], the “HDR Editing Efficiency, replicate 1 hdr 1” value is 8.4 and 4.3 and 4.9; the “HDR Editing Efficiency, replicate 2 hdr 2” value was 29 and 27.4 (2×); the “HDR Editing Efficiency, replicate 3 hdr 3” value is 27.5 and 58.3 and 29.8; the “HDR Editing Efficiency, replicate 4 hdr 4” value was 27.6 and 40 and 25.1. Moreover, the “HDR Editing Efficiency, Average” value in assay [3] is 23.125 and 32.5 and 21.8. Also, the “increase in the amount of CRISPR-genome edited HEK-EGIP cells” value in assay [4] is given as “approximately 83%”.

Consider `CNC(=O)c1ccnc2c([C@H](C)CNc3cc(-c4ccc(C)nc4)ncn3)cccc12` [Compound 3], for which, in assay [1] (10 μM Compound 3, experiments in triplicates, compared to transfection in the presence of SCR7), the “fold increase in HDR enhancement compared to SCR7” value is listed as “about 8 fold”. The GFP positive cells in assay [4] came to 4%.

In the case of `Oc1nc(S)nc(/N=C/c2ccccc2)c1/N=C/c1ccccc1` [Scr7, reference compound], in assay [1], the “FACS Analysis - Percent HDR enhancement (gRNA-Cas9 + donor), Mean” value is given as 0.32%; the “FACS Analysis - Percent HDR enhancement (gRNA-Cas9 + donor), single replicate” value was 0.16% and 0.62% and 0.19%; the “GFP positive cells after transfection of donor repair template and gRNA-Cas9 (qualitative)” value is “increase in GFP positive cells”. For the same compound, the “fold increase in the amount of CRISPR-genome edited cells (HDR enhancement)” value in assay [1] (2.5 μM) is on record as roughly 2.3 fold. Also, in assay [3], the “HDR Editing Efficiency, replicate 1 hdr 1” value was 1.3 and 14.1 and 5.8; the “HDR Editing Efficiency, replicate 2 hdr 2” value was 18.2 and 22.7 and 21.8; the “HDR Editing Efficiency, replicate 3 hdr 3” value is 16.6 and 20.2 and 21.3; the “HDR Editing Efficiency, replicate 4 hdr 4” value was 16.4 and 28.1 and 23. For the same compound, in assay [3], the “HDR Editing Efficiency, Average” value is 13.125 and 21.275 and 17.975. In assay [4], the “increase in the amount of CRISPR-genome edited HEK-EGIP cells” value was “approximately 30%” and the GFP positive cells result is given as “about 0.5%”.
